Entries after “also recorded” stand apart in the source; their conditions may differ.
Experiments:
[1] = tested on: rats with infraorbital nerve injury; experiment: Motor deficits observed in rats with IoN injury after drug injection; type: in vivo, rat; conditions: i.p., doses 7.5-30 mg/kg
Description: (§1) Male and female Sprague-Dawley rats (Möllegård, Denmark) weighing 200-250 g at the start of the experiments were used. All experimental procedures were approved by the local research ethics committee.
(§2) SPM 927 was dissolved in physiological saline and injected intraperitoneally. The data are expressed as median±M.A.D. and analysed with Wilcoxon signed-ranks test.

[2] = tested on: rats with infraorbital nerve injury; experiment: Mechanical sensitivity (von Frey filaments) after photochemically-induced ischemic infraorbital nerve (IoN) injury, model of trigeminal neuropathic pain; type: in vivo, rat; conditions: for effect on mechanical hypersensitivity (response threshold to von Frey stimulation): 14-16 days after IoN injury
Description: as §1
Rats were anesthetized with chloral hydrate. The left IoN was exposed via a longitudinal incision at the maxillary region and all branches of the nerve were carefully lifted on a glass hook. A piece of aluminium foil was placed under the nerve and the nerve was irradiated for 6 min with the tunable argon ion laser. The rat was positioned so that the laser beam was perpendicular and transversal to the exposed nerve. Immediately before irradiation erythrosin B was injected i.v. and the injection was repeated after 5 min. After irradiation the wound was closed in layers.
Mechanical sensitivity was tested with a series of von Frey filaments. The rat was gently held by the experimenter and the von Frey filaments were applied in ascending order to the IoN territory on the hairy skin of the vibrissal pad. The stimulation with each filament consisted of four consecutive applications at 1/s on the injured and then on the contralateral side. […] The rats were habituated to the testing procedure for several days before nerve injury and baseline response was determined in two sessions. Testing was carried out 3, 7, 10 and 14 d after the injury to assess the development of mechanical hypersensitivity. The effect of SPM 927 (7.5, 15, and 30 mg/kg) was tested 14-16 days after injury when mechanical hypersensitivity was well established. Measurements were taken 30 min, 1 h, 2 h, and 3 h following drug injection.
as §2

## COC[C@@H](NC(C)=O)C(=O)NCc1ccccc1 [SPM 927, (R)-2-acetamide-N-benzyl-3-methoxypropionamide]
[1]
  motor deficits: did not cause motor deficits
[2]; female rats, 7.5 mg/kg i.p.
  effect on mechanical hypersensitivity (response threshold to von Frey stimulation): no effect
[2]; female rats, 15 mg/kg i.p.
  effect on mechanical hypersensitivity (response threshold to von Frey stimulation): significantly and markedly alleviated mechanical hypersensitivity
[2]; female rats, 20 mg/kg i.p.
  effect on mechanical hypersensitivity (response threshold to von Frey stimulation): significantly and markedly alleviated mechanical hypersensitivity
[2]; male rats, 15 mg/kg i.p.
  effect on mechanical hypersensitivity (response threshold to von Frey stimulation): did not alleviate mechanical hypersensitivity
[2]; male rats, 20 mg/kg i.p.
  effect on mechanical hypersensitivity (response threshold to von Frey stimulation): did not alleviate mechanical hypersensitivity
[2]; male rats, 30 mg/kg i.p.
  effect on mechanical hypersensitivity (response threshold to von Frey stimulation): significantly alleviated mechanical hypersensitivity for 3 h
[2]; systemic, single dose administration
  overall analgesic or/and anti-allodynic effect in rat model of trigeminal neuropathic pain: dose-dependent analgesic or/and anti-allodynic effect; also recorded: significant efficacy in reducing mechanical hypersensitivity

Reference: patent US8338641B2, “Method for treating atypical facial pain” (UCB Pharma GmbH, priority 2004, dated 2012)
